Measurements taken from patent publication US5298494A, “Monosaccharides having anti-proliferation and anti-inflammatory activity, compositions and uses thereof” (Greenwich Pharmaceuticals Incorporated, priority 1993, dated 1994).
Read-outs that look alike come from different tables or passages of the source.

What was measured:
[1] = tested on: Interleukin 1 (IL-1) production by peritoneal macrophages; assay: IL-1 Assay: production of interleukin-1 by peritoneal macrophages (thymocyte bioassay); assay type: cell-based, mouse (C57B1/6); set-up: inhibition: dose or concentration left out as unconfirmed; details: for inhibition at 0.001 µg/mL / inhibition at 0.01 µg/mL / inhibition at 0.1 µg/mL / inhibition at 2.5 µg/mL / inhibition at 10 µg/mL / inhibition at 25 µg/mL / inhibition at 100 µg/mL / inhibition: Mus musculus, Peritoneal macrophage, read-out: % effect on IL-1 production (thymidine uptake by thymocytes)
Excerpt: Interleukin 1 (IL-1) is a potent immunomodulatory cytokine that has a broad range of pro-inflammatory activities. IL-1 is known to be produced by activated accessory cells such as macrophages. Accessory cell production of IL-1 results in the activation and proliferation of T and B lymphocytes. Therefore, by inhibiting macrophage activation and production of IL-1, the activation and proliferation of the cellular effectors of inflammation can be modulated. Compounds of the invention were screened for inhibitory activity in a classical IL-1 assay. Six to 8 week old male C57B1/6 mice were purchased from Harlan Sprague Dawley. Peritoneal macrophages were elicited by the administration to mice of a single intraperitoneal injection of 0.2 ml of complete Freund's adjuvant. After 48 hours, elicited macrophages were removed from the mice by lavage with the use of Hank's balanced salt solution. […] To the macrophage cultures were added various doses of the compounds of the invention and 10 ug/ml of the macrophage activator lipopolysaccharide (to stimulate IL-1 production). Control cultures consisted of macrophages, lipopolysaccharide and culture medium containing various doses of DMSO only. […] The amount of IL-1 produced in the individual wells was determined in a bioassay for IL-1. This involved the removal of thymuses from mice less than 8 weeks of age. Thymocytes were isolated by passing each thymus through a stainless steel mesh screen. […] After 18 hours cells were harvested and radioactive incorporation (as a measure of cell proliferation) was quantitated in a liquid scintillation counter. The students t test was used to determine the significance of the difference between experimental and control values.

[2] = tested on: T lymphocytes (normal mouse spleen cells) stimulated with ConA; assay: Mouse Spleen Cell ConA Blastogenesis Assay; assay type: cell-based, mouse (C57Bl/6); details: for inhibition at 1 µg/mL / inhibition at 2.5 µg/mL / inhibition at 10 µg/mL / inhibition at 25 µg/mL / inhibition at 100 µg/mL / inhibition at 300 µg/mL / inhibition at 750 µg/mL: Mus musculus, T-lymphocyte, read-out: % change from control, ConA blastogenic response; for inhibition at 2.5 µg/mL: compound 2.5 ug/ml; for strong antiproliferative effect on ConA blastogenic response: concentration not given
[3] = ConA 1 ug/ml, compound 10 ug/ml
[4] = ConA 1 ug/ml, compound 25 ug/ml
[5] = ConA 1 ug/ml, compound 100 ug/ml
[6] = ConA 4 ug/ml, compound 10 ug/ml
[7] = ConA 4 ug/ml, compound 25 ug/ml
[8] = ConA 4 ug/ml, compound 100 ug/ml
[9] = ConA 1 ug/ml, compound 300 ug/ml
[10] = ConA 1 ug/ml, compound 750 ug/ml
[11] = ConA 4 ug/ml, compound 300 ug/ml
[12] = ConA 4 ug/ml, compound 750 ug/ml

For `CC1(C)OC2OC(C(O)COCCCc3ccccc3)C(O)C2O1` [IIIe, 1,2-O-Isopropylidene-6-O-3'-(phenylpropyl)-α-D-glucofuranose], the “^3 H-Thymidine uptake by thymocytes” value ([1]; 0.001 ug/ml) was 7,276 ± 399 cpm, the “^3 H-Thymidine uptake by thymocytes” value ([1]; 0.01 ug/ml) was 8,908 ± 773 cpm and the “^3 H-Thymidine uptake by thymocytes” value ([1]; 0.1 ug/ml) was 8,049 ± 282 cpm. The “^3 H-Thymidine uptake by thymocytes” value ([1]; 1 ug/ml) was 4,279 ± 691 cpm, the “^3 H-Thymidine uptake by thymocytes” value ([1]; 2.5 ug/ml) was 3,676 ± 506 cpm and the “^3 H-Thymidine uptake by thymocytes” value ([1]; 10 ug/ml) was 2,586 ± 553 cpm. For the same molecule, the “^3 H-Thymidine uptake by thymocytes” value ([1]; 25 ug/ml) was 1,840 ± 301 cpm, the “^3 H-Thymidine uptake by thymocytes” value ([1]; 100 ug/ml) was 1,129 ± 299 cpm and the inhibition at 0.001 µg/mL ([1]; 0.001 ug/ml) was -11%. The inhibition at 0.01 µg/mL ([1]; 0.01 ug/ml) was -8%, the inhibition at 0.1 µg/mL ([1]; 0.1 ug/ml) was -4% and the inhibition at 2.5 µg/mL ([1]; 2.5 ug/ml) was 56%. It also gave an inhibition at 10 µg/mL ([1]; 10 ug/ml) of 66%, an inhibition at 25 µg/mL ([1]; 25 ug/ml) of 76% and an inhibition at 100 µg/mL ([1]; 100 ug/ml) of 83%. It also gave an inhibition [1] of -45%, an inhibition at 1 µg/mL ([2]; ConA 1 ug/ml, compound 1 ug/ml) of 78% and an inhibition at 2.5 µg/mL ([2]; ConA 1 ug/ml) of 94%. The inhibition at 10 µg/mL [2, 3] was 98%, the inhibition at 25 µg/mL [2, 4] was 99% and the inhibition at 100 µg/mL [2, 5] was 99%. For the same molecule, the inhibition at 1 µg/mL ([2]; ConA 4 ug/ml, compound 1 ug/ml) was 76%, the inhibition at 2.5 µg/mL ([2]; ConA 4 ug/ml) was 91% and the inhibition at 10 µg/mL [2, 6] was 97%. The inhibition at 25 µg/mL [2, 7] was 99%, the inhibition at 100 µg/mL [2, 8] was 100% and the “strong antiproliferative effect on ConA blastogenic response” value [2] was “greater than -50 % of control”.

For `CN1CCCC1CCNC[C@H]1OC(C)(C)O[C@@H]2[C@H]3OC(C)(C)O[C@H]3O[C@@H]21` (some centres unmarked) [IIIi], the “^3 H-Thymidine uptake by thymocytes” value ([1]; 0.001 ug/ml) was 11,367 ± 906 cpm, the “^3 H-Thymidine uptake by thymocytes” value ([1]; 0.01 ug/ml) was 9,902 ± 888 cpm and the “^3 H-Thymidine uptake by thymocytes” value ([1]; 0.1 ug/ml) was 10,740 ± 724 cpm. The “^3 H-Thymidine uptake by thymocytes” value ([1]; 1 ug/ml) was 9,561 ± 113 cpm, the “^3 H-Thymidine uptake by thymocytes” value ([1]; 2.5 ug/ml) was 5,382 ± 45 cpm and the “^3 H-Thymidine uptake by thymocytes” value ([1]; 10 ug/ml) was 5,169 ± 870 cpm. The “^3 H-Thymidine uptake by thymocytes” value ([1]; 25 ug/ml) was 5,052 ± 140 cpm, the “^3 H-Thymidine uptake by thymocytes” value ([1]; 100 ug/ml) was 2,328 ± 278 cpm and the inhibition at 0.001 µg/mL ([1]; 0.001 ug/ml) was -39%. For the same molecule, the inhibition at 0.01 µg/mL ([1]; 0.01 ug/ml) was -20%, the inhibition at 0.1 µg/mL ([1]; 0.1 ug/ml) was -39% and the inhibition at 2.5 µg/mL ([1]; 2.5 ug/ml) was 35%. It also gave an inhibition at 10 µg/mL ([1]; 10 ug/ml) of 33%, an inhibition at 25 µg/mL ([1]; 25 ug/ml) of 34% and an inhibition at 100 µg/mL ([1]; 100 ug/ml) of 65%. For the same molecule, the inhibition [1] was -22%, the inhibition at 1 µg/mL ([2]; ConA 1 ug/ml, compound 1 ug/ml) was -25% and the inhibition at 2.5 µg/mL ([2]; ConA 1 ug/ml) was -16%. The inhibition at 10 µg/mL [2, 3] was -10%, the inhibition at 25 µg/mL [2, 4] was 23% and the inhibition at 100 µg/mL [2, 5] was 91%. It also gave an inhibition at 1 µg/mL ([2]; ConA 4 ug/ml, compound 1 ug/ml) of 9%, an inhibition at 2.5 µg/mL ([2]; ConA 4 ug/ml) of 14% and an inhibition at 10 µg/mL [2, 6] of 9%. The inhibition at 25 µg/mL [2, 7] was 50%, the inhibition at 100 µg/mL [2, 8] was 95% and the “strong antiproliferative effect on ConA blastogenic response” value [2] was “greater than -50 % of control”.

`CCCCCCCOCCCO[C@@H]1[C@H]2OC(C)(C)O[C@H]2O[C@@H]1[C@H](O)CO` [IIg] was tested, and the “^3 H-Thymidine uptake by thymocytes” value ([1]; 0.001 ug/ml) was 8,823 ± 771 cpm, the “^3 H-Thymidine uptake by thymocytes” value ([1]; 0.01 ug/ml) was 7,873 ± 379 cpm and the “^3 H-Thymidine uptake by thymocytes” value ([1]; 0.1 ug/ml) was 8,790 ± 533 cpm. For the same molecule, the “^3 H-Thymidine uptake by thymocytes” value ([1]; 1 ug/ml) was 7,307 ± 680 cpm, the “^3 H-Thymidine uptake by thymocytes” value ([1]; 2.5 ug/ml) was 7,229 ± 471 cpm and the “^3 H-Thymidine uptake by thymocytes” value ([1]; 10 ug/ml) was 4,854 ± 471 cpm. The “^3 H-Thymidine uptake by thymocytes” value ([1]; 25 ug/ml) was 3,265 ± 141 cpm, the “^3 H-Thymidine uptake by thymocytes” value ([1]; 100 ug/ml) was 934 ± 43 cpm and the inhibition at 0.001 µg/mL ([1]; 0.001 ug/ml) was -8%. For the same molecule, the inhibition at 0.01 µg/mL ([1]; 0.01 ug/ml) was 4%, the inhibition at 0.1 µg/mL ([1]; 0.1 ug/ml) was -14% and the inhibition at 2.5 µg/mL ([1]; 2.5 ug/ml) was 13%. The inhibition at 10 µg/mL ([1]; 10 ug/ml) was 37%, the inhibition at 25 µg/mL ([1]; 25 ug/ml) was 57% and the inhibition at 100 µg/mL ([1]; 100 ug/ml) was 80%. The inhibition [1] was 6%, the “Blastogenic response of normal spleen cells to Con-A” value (shortened to “Blastogenic response … to Con-A”) ([2]; ConA 1 ug/ml, compound 1 ug/ml) was 91,958 ± 15,723 cpm and the “Blastogenic response … to Con-A” value [2, 3] was 100,734 ± 25,985 cpm. For the same molecule, the “Blastogenic response … to Con-A” value [2, 4] was 108,874 ± 15,534 cpm, the “% change from control, ConA blastogenic response” value (“% change from control” for short) [2, 5] was -67% and the “Blastogenic response … to Con-A” value [2, 5] was 23,806 ± 1,727 cpm. For the same molecule, the “% change from control” value [2, 9] was -84%, the “Blastogenic response … to Con-A” value [2, 9] was 11,212 ± 15,288 cpm and the “% change from control” value [2, 10] was -82%. The “Blastogenic response … to Con-A” value [2, 10] was 12,807 ± 9,049 cpm, the “Blastogenic response … to Con-A” value ([2]; ConA 4 ug/ml, compound 1 ug/ml) was 174,764 × 10^3 cpm and the “Blastogenic response … to Con-A” value [2, 6] was 168,131 ± 14,911 cpm. For the same molecule, the “Blastogenic response … to Con-A” value [2, 7] was 216,784 ± 27,862 cpm, the “Blastogenic response … to Con-A” value [2, 8] was 31,073 ± 10,784 cpm and the “% change from control” value [2, 11] was -91%. The “Blastogenic response … to Con-A” value [2, 11] was 8,268 ± 322 × 10^3 cpm, the “% change from control” value [2, 12] was -79% and the “Blastogenic response … to Con-A” value [2, 12] was 20,265 ± 12,455 cpm. For the same molecule, the inhibition at 1 µg/mL ([2]; ConA 1 ug/ml, compound 1 ug/ml) was -27%, the inhibition at 10 µg/mL [2, 3] was -39% and the inhibition at 25 µg/mL [2, 4] was -51%. It also gave an inhibition at 100 µg/mL [2, 5] of 67%, an inhibition at 300 µg/mL [2, 9] of 84% and an inhibition at 750 µg/mL [2, 10] of 82%. For the same molecule, the inhibition at 1 µg/mL ([2]; ConA 4 ug/ml, compound 1 ug/ml) was -80%, the inhibition at 10 µg/mL [2, 6] was -73% and the inhibition at 25 µg/mL [2, 7] was -123%. For the same molecule, the inhibition at 300 µg/mL [2, 11] was 91% and the inhibition at 750 µg/mL [2, 12] was 79%.
